In data set [1] the test system is EMT6. Description: Prodrug activation in mouse EMT6 cells assessed as 6-((3-((dimethylamino)methyl)benzyl)oxy)-9H-purin-2-amine level under oxic condition at 200 uM after 1 hr by HPLC analysis. Format: cell-based. As to conditions: emt6, 1 h.
Data set [2] has as its system EMT6. The experiment in a line: Prodrug activation in mouse EMT6 cells assessed as 6-((3-((dimethylamino)methyl)benzyl)oxy)-9H-purin-2-amine level under hypoxic condition at 200 uM after 1 hr by HPLC analysis. Format: cell-based. As to conditions: emt6, 1 h.
Data set [3] deals with EMT6. Description: Potentiation of laromustine-induced cytotoxicity against mouse EMT6 cells expressing human AGT assessed as cell survival fraction at 2 uM treated 2 hrs before laromustine addition measured after 18 hrs by clonogenic assay. The data set is classed as functional, cell-based.
Data set [4] has as its system EMT6. Description: Cytotoxicity against mouse EMT6 cells expressing human AGT assessed as cell survival fraction at 2 uM after 18 hrs by clonogenic assay. As to conditions: emt6, 18 h. The data set is classed as cell-based.
In data set [5] the target is T1, Methylated-DNA--protein-cysteine methyltransferase (Homo sapiens, UniProt P16455).
T1 sequence (P16455 whole entry): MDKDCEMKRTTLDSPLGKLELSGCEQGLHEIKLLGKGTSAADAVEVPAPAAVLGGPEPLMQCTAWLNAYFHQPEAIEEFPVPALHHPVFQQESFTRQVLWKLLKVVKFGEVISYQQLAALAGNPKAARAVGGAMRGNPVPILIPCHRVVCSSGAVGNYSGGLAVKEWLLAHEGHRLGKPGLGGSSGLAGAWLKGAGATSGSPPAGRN
Description: Inhibition of AGT in human HL60 cells assessed as AGT levels using [3H]AGT after 2 hrs

Data set [6] relates to EMT6. Description: Stability of the compound in mouse EMT6 cells assessed as parent compound level under hypoxic condition at 200 uM after 1 hr by HPLC analysis. Format: ADME, cell-based. As to conditions: emt6, 1 h.
Data set [7] deals with EMT6. Description: Stability of the compound in mouse EMT6 cells assessed as parent compound level under oxic condition at 200 uM after 1 hr by HPLC analysis. Format: ADME, cell-based. As to conditions: emt6, 1 h.

Experimental findings from ChEMBL document CHEMBL2169860, “Design of a hypoxia-activated prodrug inhibitor of O6-alkylguanine-DNA alkyltransferase” (Bioorg Med Chem Lett, 2012) are described below.

The source made the active and inactive calls. No cut-off for these calls is given here.

For `CN(C)Cc1cccc(COc2nc(NC(=O)OC(C)(C)c3ccc([N+](=O)[O-])cc3)nc3[nH]cnc23)c1`, the Drug metabolism in data set [1] is 195.5 µM; in data set [2] it was 149.6 µM.

Consider `NCc1cccc(COc2nc(N)nc3nc[nH]c23)c1`, for which the outcome in data set [3] was Active. The Activity result in data set [4] is “Non-toxic”.

Regarding `Nc1nc(OCc2ccccc2)c2[nH]cnc2n1` [6-O-BENZYLGUANINE], in data set [4], the Activity result is “Non-toxic”.

Take `Nc1nc(OCc2ccccc2)c2nc[nH]c2n1`: the outcome in data set [3] was Active.

As usually defined, the IC50 is the midpoint of a concentration-inhibition curve. Read a high IC50 as weaker potency in that assay. Regarding `CC(=O)NCc1cccc(COc2nc(N)nc3[nH]cnc23)c1`, the IC50 in data set [5] stood at 86 nM. Besides, the outcome in data set [3] was Active. Besides, the Activity result in data set [4] was “Non-toxic”.

For the molecule `CN(C)Cc1cccc(COc2nc(N)nc3[nH]cnc23)c1`, the IC50 in data set [5] is 25 nM. For the same molecule, the values for the Stability in data set [6] and in data set [7] were 12.3 µM and 0.2 µM, respectively. Also, in data set [3], the outcome was Active. The Activity entry in data set [4] is “Non-toxic”.
